Patent US11266662B2, “Ganaxolone for use in prophylaxis and treatment of postpartum depression” (Marinus Pharmaceuticals, Inc., priority 2018, dated 2022)
Converted amounts (≈) assume the structure as drawn. “And” between values parts separate entries of the source, which are not always exact repeats. Equal entries are not always repeated.

Key:
[1] = tested on: women with postpartum depression; assay: Phase 2A study: safety and tolerability (adverse events); type: in vivo, human
[2] = Phase 1 study of IV ganaxolone in healthy volunteers (safety, pharmacokinetics, sedation); type: in vivo, human
Description: The safety, pharmacokinetics and pharmacodynamics of IV ganaxolone were investigated in healthy 36 volunteers, in which ganaxolone was administered as a bolus dosing (Stage 1) or as a bolus dose followed by a continuous infusion (Stage 2). Ten of the 36 subjects enrolled were women. Stage 1 enrolled and dosed subjects in 4 cohorts (A-D): 6 subjects in Cohort A (10 mg ganaxolone IV bolus in 3 subjects and 30 mg ganaxolone bolus in 3 subjects over 5-minutes), 8 subjects in Cohort B (20 mg ganaxolone bolus over 2-minutes), 8 subjects in Cohort C (30 mg ganaxolone bolus over 1-hour) and 8 subjects in Cohort D (10 mg ganaxolone bolus over 1-hour). Cohorts B, C and D included 2 placebo subjects in each cohort. Stage 2 of the study dosed a total of 6 subjects with a 6 mg bolus followed by a 4-hour infusion at 20 mg/h. Ten of the 36 subjects enrolled in the study were women.
A Phase 1 study in healthy volunteers investigating the safety of IV ganaxolone, infusion of 30 mg/hr for 1 hour, 20 mg over 2 minutes and 20 mg/hr for 4 hours led to peak concentrations of 258, 441 and 215 ng/mL, respectively, without any safety concerns. Sedation was assessed using the Modified Observers Assessment of Alertness/Sedation (MOAAS) scale. On this scale, score 5 indicates no sedation (responds readily to name spoken in normal tone) while score 1 indicates deep sedation (responds only after painful trapezius squeeze). […] The sedation scores reversed quickly after the infusion was stopped. The highest bolus dose tested was 30 mg, which was infused over 5-minutes. This dose led to peak concentration levels (Cmax) of >1,000 ng/mL with no safety concerns (except sedation).

[3] = tested on: synaptic and extrasynaptic GABAA receptors; assay: Activation of synaptic and extrasynaptic GABAA receptors; settings: site distinct from the benzodiazepine site
[4] = tested on: BTBR mouse model of autism; settings: Kazdoba et al, 2016; cited from earlier work
[5] = tested on: children and adolescents with fragile X syndrome; settings: in those with higher baseline anxiety; Ligsay et al, 2017; cited from earlier work
[6] = human plasma following oral administration; cited from earlier work
Solubility of ganaxolone = settings: for solubility: organic solvent or mixture
[7] = Excretion of radioactivity; settings: all species
rats or mice = assay: Reproductive and developmental toxicity
[8] = Human pharmacokinetics after oral administration; settings: in vivo
CYP3A4/5 = assay: Ganaxolone levels in subjects taking strong CYP inducers (carbamazepine and phenytoin); settings: with strong CYP inducers (carbamazepine and phenytoin)

In the case of `CC(=O)[C@H]1CC[C@H]2[C@@H]3CC[C@H]4C[C@](C)(O)CC[C@]4(C)[C@H]3CC[C@]12C` [ganaxolone, 3α-hydroxy-3β-methyl-5α-pregnan-20-one], the “Serious adverse events or adverse events leading to discontinuation” value ([1]; Cohort 1: IV 4 mg/hr for 48 h then 2 mg/hr for 12 h, 9 subjects) was “no serious adverse events or adverse events leading to discontinuation”, the “DC for AE” value ([1]; Cohort 6) was 0 n (%) and the Incidence of dizziness ([1]; Cohort 6) was 25%. The “Serious adverse events or adverse events leading to treatment discontinuation” value ([1]; Cohort 6) was “no serious adverse events or adverse events leading to treatment discontinuation”, the “TEAE somnolence” value ([1]; Cohort 6) was 0 n (%) and the “Incidence of somnolence and sedation” value ([1]; Cohort 6: IV 20 mg/hr for 6 hours and 900 mg orally with dinner) was > 30% and 31.3%. The “Tolerability of oral administration” value ([1]; Cohort 6, 900 mg orally with dinner, after Day 2) was “well tolerated”, the Peak concentration ([2]; 20 mg over 2 minutes) was 441 ng/mL and the Peak concentration ([2]; 20 mg/hr for 4 hours) was 215 ng/mL. For the same molecule, the “Treatment emergent AEs, seriousness and intensity” value ([2]; Stages 1 and 2) was “None of the treatment emergent AEs were serious, and all were of mild intensity”, the Cmax ([2]; human, in vivo, intravenous, bolus infusion of 30 mg over 5-minutes, read-out: Peak concentration levels (Cmax)) was > 1 µg/mL and the Peak concentration ([2]; infusion of 30 mg/hr for 1 hour) was 258 ng/mL. The “Modified Observers Assessment of Alertness/Sedation (MOAAS) score” value ([2]; score 5 = no sedation, 1 = deep sedation) was “vast majority of the scores were 5”, the “Potency and efficacy in activating GABAA receptors” value [3] was “comparable to allopregnanolone” and the Sociability [4] was “improved sociability”. The “Anxiety, hyperactivity and attention” value [5] was “reduced anxiety and hyperactivity and improved attention”, the Half-life [6] was “approximately 20 hours” and the solubility (Solubility of ganaxolone; 95% alcohol) was 13000 µg/mL (≈ 39.1 mM). The solubility (Solubility of ganaxolone; polyethylene glycol) was 3100 µg/mL (≈ 9.32 mM), the solubility (Solubility of ganaxolone; propylene glycol) was 3500 µg/mL (≈ 10.5 mM) and the Concentration dissolved (Solubility of ganaxolone; using water soluble beta cyclodextrins) was > 1000 µg/mL. For the same molecule, the Solubility in water (Solubility of ganaxolone; water) was “insoluble”, the “Excreted radioactivity via faeces” value [7] was > 70% and the “Fertility and early embryonic development” value (rats or mice; rats) was “no effects on fertility and early embryonic development”. For the same molecule, the Teratogenicity (rats or mice; rats or mice) was “not teratogenic”, the Cmax [8] was 0.2 to 0.3 µg/mL and the “Lowering in overall ganaxolone levels and exposure” value (CYP3A4/5) was ~45%.
